According to US12233161B1, “Lipids and lipid nanoparticle formulations” (LONGUIDE BIOPHARMA CORPORATION, priority 2024, dated 2025):

Columns and labels:
[1] = Potential characterization of nucleic acid lipid nanoparticle preparations; assay type: physicochemical
Summary of the method: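 Zeta potential was read on a Malvern ZEN3700 after diluting 20 μL lipid nanoparticle solution (about 0.04 mg/mL mRNA) into 780 μL ultrapure water. Alternatively, a 27.5 μL sample in 200 μL water was first sized by dynamic light scattering, then diluted with 600 μL more water for potential measurement.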

[2] = Particle size and PDI of nucleic acid lipid nanoparticle preparations by dynamic light scattering; assay type: physicochemical
Summary of the method: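 Size read by DLS after diluting the LNP preparation (approx. 0.04 mg/mL mRNA) in ultrapure water with gentle pipette mixing. The same sample, recovered and diluted further with water, was then used for zeta potential measurement.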

mice [3] = test: In vivo delivery of FLuc-circ-RNA lipid nanoparticles in mice; conditions: Fluc-circ-RNA LNP; for % of organ targeting: IV
Method: Lipid nanoparticles loaded with nucleic acid drugs were prepared according to step 2, replacing FLuc-mRNA with FLuc-circ-RNA (Hongene Biotech Corporation, Shanghai). After formulation, the nanoparticles were administered via intramuscular injection (into the quadriceps femoris muscle of mice), intravenous injection (into the tail vein of mice), intraperitoneal injection, or subcutaneous injection (subcutaneously on the back). Approximately 75 μL was injected per mouse, with a total of 3 mice per group. In vivo imaging (PerkinElmer, IVIS Lumina III) was performed after a certain period of time. Ten to fifteen minutes before imaging, 200 μL of a 15 mg/mL D-Luciferin working solution was injected intraperitoneally, followed by imaging analysis using the in vivo imaging system.

mice [4] = test: In vivo delivery of FLuc-mRNA lipid nanoparticles in mice, in vivo imaging (IVIS)
Summary of the method: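 Mice (n=3) received about 75 μL FLuc-mRNA LNP per mouse intramuscularly (rectus femoris), intravenously (tail vein), intraperitoneally or subcutaneously (back). After injection, D-luciferin (200 μL, 15 mg/mL) was given i.p. 10-15 min before IVIS imaging.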

[5] = DMG-PEG2000:DSPC:Chol:compound 1.00:10.00:33.00:56.00, N/P 48
[6] = Fluc-circ-RNA LNP, preparation given IV
[7] = DMG-PEG2000:DSPC:Chol:Lipid 1.40:11.15:38.95:48.50, N/P 30, mRNA LNP
[8] = DMG-PEG2000:DSPC:Chol:Lipid 4.00:8.00:58.00:30.00, N/P 36, mRNA LNP
[9] = DMG-PEG2000:DSPC:Chol:Lipid 1.40:11.15:38.95:48.50, N/P 30, IV, liver
[10] = DMG-PEG2000:DSPC:Chol:Lipid 1.40:11.15:38.95:48.50, N/P 30, IV, lung
[11] = DMG-PEG2000:DSPC:Chol:Lipid 1.40:11.15:38.95:48.50, N/P 30, IV, spleen
[12] = DMG-PEG2000:DSPC:Chol:Lipid 4.00:8.00:58.00:30.00, N/P 36, IV, liver
[13] = DMG-PEG2000:DSPC:Chol:Lipid 4.00:8.00:58.00:30.00, N/P 36, IV, lung
[14] = DMG-PEG2000:DSPC:Chol:Lipid 4.00:8.00:58.00:30.00, N/P 36, IV, spleen
[15] = Fluc-circ-RNA LNP, preparation given IM
[16] = N/P 30, formulation cells blank (line above: DMG-PEG2000:DSPC:Chol:compound 1.00:10.00:33.00:56.00)
[17] = DMG-PEG2000:DSPC:Chol:compound 1.00:10.00:33.00:56.00, N/P 42
[18] = IV, body, DMG-PEG2000:DSPC:Chol:compound 1.00:10.00:33.00:56.00, N/P 42, Fluc-mRNA
[19] = IV, liver, DMG-PEG2000:DSPC:Chol:compound 1.00:10.00:33.00:56.00, N/P 42
[20] = IV, liver, DMG-PEG2000:DSPC:Chol:compound 1.00:10.00:33.00:56.00, N/P 42, Fluc-mRNA
[21] = IV, lung, DMG-PEG2000:DSPC:Chol:compound 1.00:10.00:33.00:56.00, N/P 42
[22] = IV, lung, DMG-PEG2000:DSPC:Chol:compound 1.00:10.00:33.00:56.00, N/P 42, Fluc-mRNA
[23] = IV, spleen, DMG-PEG2000:DSPC:Chol:compound 1.00:10.00:33.00:56.00, N/P 42
[24] = IV, spleen, DMG-PEG2000:DSPC:Chol:compound 1.00:10.00:33.00:56.00, N/P 42, Fluc-mRNA
[25] = DMG-PEG2000:DSPC:Chol:compound 1.40:11.15:38.95:48.50, N/P 30
[26] = DMG-PEG2000:DSPC:Chol:compound 2.50:11.50:56.00:30.00, N/P 42

Structure (SMILES): CCCCCCCCCCCCNC(=O)C(O)CN(CCCN(CCO)CCCN(CC(O)C(=O)NCCCCCCCCCCCC)CC(O)C(=O)NCCCCCCCCCCCC)CC(O)C(=O)NCCCCCCCCCCCC (stereo not shown) [Compound L0281]
- Zeta potential (mV) [1, 5]: 14.67 mV
- Zeta potential (mV) [1, 6]: 16.27 mV
- PDI [2, 7]: 0.13 ± 0.01
- Particle size [2, 7]: 118.73 ± 0.90 nm
- PDI [2, 8]: 0.11 ± 0.01
- Particle size [2, 8]: 104.43 ± 0.96 nm
- PDI [2, 5]: 0.14
- Particle size (nm) [2, 5]: 138.90 nm
- PDI [2, 6]: 0.19
- Particle size (nm) [2, 6]: 152.1 nm
- % of organ targeting (mice [3]; liver): 0.74%
- % of organ targeting (mice [3]; lung): 96.58%
- % of organ targeting (mice [3]; spleen): 2.68%
- IVIS (mice [4]; DMG-PEG2000:DSPC:Chol:Lipid 1.40:11.15:38.95:48.50, N/P 30, IM, whole body scan): 1.38 × 10^6
- IVIS (mice [4]; DMG-PEG2000:DSPC:Chol:Lipid 1.40:11.15:38.95:48.50, N/P 30, IV, body (whole body scan)): 6.41 × 10^7
- % of organ targeting (mice [4]; [9]): 1.91%
- IVIS (mice [4]; [9]): 3.17 × 10^6
- % of organ targeting (mice [4]; [10]): 93.34%
- IVIS (mice [4]; [10]): 1.55 × 10^8
- % of organ targeting (mice [4]; [11]): 4.75%
- IVIS (mice [4]; [11]): 7.89 × 10^6
- IVIS (mice [4]; DMG-PEG2000:DSPC:Chol:Lipid 4.00:8.00:58.00:30.00, N/P 36, IV, body): 7.07 × 10^7
- % of organ targeting (mice [4]; [12]): 21.21%
- IVIS (mice [4]; [12]): 1.28 × 10^7
- % of organ targeting (mice [4]; [13]): 1.08%
- IVIS (mice [4]; [13]): 6.52 × 10^5
- % of organ targeting (mice [4]; [14]): 77.71%
- IVIS (mice [4]; [14]): 4.68 × 10^7
- IVIS (mice [4]; IV, body, DMG-PEG2000:DSPC:Chol:compound 1.00:10.00:33.00:56.00, N/P 48, Fluc-mRNA): 4.66E+08
- % of organ targeting (mice [4]; IV, liver, DMG-PEG2000:DSPC:Chol:compound 1.00:10.00:33.00:56.00, N/P 48): 0.73%
- IVIS (mice [4]; IV, liver, DMG-PEG2000:DSPC:Chol:compound 1.00:10.00:33.00:56.00, N/P 48, Fluc-mRNA): 7.58E+06
- % of organ targeting (mice [4]; IV, lung, DMG-PEG2000:DSPC:Chol:compound 1.00:10.00:33.00:56.00, N/P 48): 97.70%
- IVIS (mice [4]; IV, lung, DMG-PEG2000:DSPC:Chol:compound 1.00:10.00:33.00:56.00, N/P 48, Fluc-mRNA): 1.02E+09
- % of organ targeting (mice [4]; IV, spleen, DMG-PEG2000:DSPC:Chol:compound 1.00:10.00:33.00:56.00, N/P 48): 1.57%
- IVIS (mice [4]; IV, spleen, DMG-PEG2000:DSPC:Chol:compound 1.00:10.00:33.00:56.00, N/P 48, Fluc-mRNA): 1.64E+07
- in vivo delivery efficiency as compared to the benchmark compound SM102 (mice [4]; certain formulations, Table 2): superior in vivo delivery efficiency
- tissue-targeting specificity (lung vs spleen depending on molar percentage of compound) (mice [4]; certain formulations, Table 2): strong tissue-targeting specificity

Structure (SMILES): CCCCCCC(CCCCCC)C(=O)OCCCCCCOC(=O)C(O)CN(CCCN(C)CCCN(CC(O)C(=O)OCCCCCCOC(=O)C(CCCCCC)CCCCCC)CC(O)C(=O)OCCCCCCOC(=O)C(CCCCCC)CCCCCC)CC(O)C(=O)OCCCCCCOC(=O)C(CCCCCC)CCCCCC (stereo not shown) [Compound L0293]
- Zeta potential (mV) [1, 15]: 11.37 mV
- Zeta potential (mV) [1, 16]: 9.98 mV
- PDI [2, 17]: 0.10
- Particle size (nm) [2, 17]: 108.93 nm
- PDI [2, 15]: 0.15
- Particle size (nm) [2, 15]: 106.57 nm
- PDI [2, 16]: 0.10
- Particle size (nm) [2, 16]: 89.30 nm
- IVIS (mice [3]; IM, organ not given): 1.02E+08
- IVIS (mice [4]; IM, N/P 30, formulation cells blank (line above: DMG-PEG2000:DSPC:Chol:compound 1.00:10.00:33.00:56.00), Fluc-mRNA): 3.61E+07
- IVIS (mice [4]; [18]): 3.11E+08
- % of organ targeting (mice [4]; [19]): 18.15%
- IVIS (mice [4]; [20]): 5.63E+07
- % of organ targeting (mice [4]; [21]): 3.34%
- IVIS (mice [4]; [22]): 1.03E+07
- % of organ targeting (mice [4]; [23]): 78.51%
- IVIS (mice [4]; [24]): 2.43E+08

Structure (SMILES): CCCCCCCCCCOC(=O)C(O)CN(CCCN(C)CCCN(CC(O)C(=O)OCCCCCCCCCC)CC(O)C(=O)OCCCCCCCCCC)CC(O)C(=O)OCCCCCCCCCC (stereo not shown) [Compound L0313]
- Zeta potential (mV) [1, 25]: 13.57 mV
- Zeta potential (mV) [1, 6]: 9.98 mV
- PDI [2, 17]: 0.17
- Particle size (nm) [2, 17]: 75.31 nm
- PDI [2, 25]: 0.18
- Particle size (nm) [2, 25]: 111.20 nm
- PDI [2, 26]: 0.17
- Particle size (nm) [2, 26]: 82.60 nm
- PDI [2, 6]: 0.2
- Particle size (nm) [2, 6]: 115.97 nm
- % of organ targeting (mice [3]; liver): 3.39%
- % of organ targeting (mice [3]; lung): 20.55%
- % of organ targeting (mice [3]; spleen): 76.06%
- IVIS (mice [4]; IM, DMG-PEG2000:DSPC:Chol:compound 1.40:11.15:38.95:48.50, N/P 30, Fluc-mRNA): 7.43E+05
- IVIS (mice [4]; [18]): 5.88E+07
- IVIS (mice [4]; IV, body, DMG-PEG2000:DSPC:Chol:compound 2.50:11.50:56.00:30.00, N/P 42, Fluc-mRNA): 5.20E+07
- % of organ targeting (mice [4]; [19]): 2.04%
- IVIS (mice [4]; [20]): 3.78E+06
- % of organ targeting (mice [4]; IV, liver, DMG-PEG2000:DSPC:Chol:compound 2.50:11.50:56.00:30.00, N/P 42): 6.90%
- IVIS (mice [4]; IV, liver, DMG-PEG2000:DSPC:Chol:compound 2.50:11.50:56.00:30.00, N/P 42, Fluc-mRNA): 8.68E+06
- % of organ targeting (mice [4]; [21]): 62.84%
- IVIS (mice [4]; [22]): 1.17E+08
- % of organ targeting (mice [4]; IV, lung, DMG-PEG2000:DSPC:Chol:compound 2.50:11.50:56.00:30.00, N/P 42): 1.10%
- IVIS (mice [4]; IV, lung, DMG-PEG2000:DSPC:Chol:compound 2.50:11.50:56.00:30.00, N/P 42, Fluc-mRNA): 1.38E+06
- % of organ targeting (mice [4]; [23]): 35.12%
- IVIS (mice [4]; [24]): 6.52E+07
- % of organ targeting (mice [4]; IV, spleen, DMG-PEG2000:DSPC:Chol:compound 2.50:11.50:56.00:30.00, N/P 42): 92.00%
- IVIS (mice [4]; IV, spleen, DMG-PEG2000:DSPC:Chol:compound 2.50:11.50:56.00:30.00, N/P 42, Fluc-mRNA): 1.16E+08
